Experimental data published in patent EP4417602A1, “SUBSTITUTED PYRAZOLE CARBOXAMIDES, SALTS THEREOF AND THEIR USE AS HERBICIDALLY ACTIVE SUBSTANCES” (Bayer AG, priority 2023, dated 2024).

Test system: ECHCG
Assay: A. Herbicidal pre-emergence action on harmful plants (Tables A)
Assay type: in vivo, Echinochloa crus-galli
Settings: application rate 1280 g/ha; visual grading after ca. 3 weeks vs untreated controls; 100% = plants have died off, 0% = as control plants
Text: (§1) Seeds of mono- and dicotyledonous weed plants were sown in plastic pots (double sowings with one species of mono- and one species of dicotyledonous weed plants per pot), in sandy loam, and covered with soil. The compounds according to the invention, formulated in the form of wettable powders (WP) or as emulsifiable concentrates (EC), were applied to the surface of the covering soil as aqueous suspension or emulsion, with the addition of 0.5% of an additive, at an application rate of 6001 of water per hectare (converted). Following treatment, the pots were placed in a greenhouse and kept under optimum growth conditions for the test plants. The visual grading of the damage to the test plants was carried out after ca. 3 weeks in comparison to untreated controls (herbicidal effect in percent (%): 100% effect = plants have died off, 0% effect = as control plants). Tables A1 to A12, below, show the effects of selected compounds of the general formula (I) according to table 1 on various harmful plants and an application rate corresponding to 1280 g/ha or below obtained by the experimental procedure mentioned above. Table A1: pre-emergence activity at 1280g/ha against ABUTH in %

SMILES	pre-emergence activity against ECHCG
COCc1nn(C(C)C)cc1C(=O)N1CCCC1Cc1ccccc1F (racemic) [Example I-025]	90%
COCc1nn(CC2CC2)cc1C(=O)N1CCCC1Cc1ccccc1F (racemic) [Example I-026]	90%
COCc1nn(CC2OCCO2)cc1C(=O)N1CCCC1Cc1ccccc1F (racemic) [Example I-028]	90%
COCc1nn(CC#N)cc1C(=O)N1CCCC1Cc1ccccc1F (racemic) [Example I-029]	90%
COCCOCCn1cc(C(=O)N2CCCC2Cc2ccccc2F)c(COC)n1 (racemic) [Example I-030]	90%
COCc1nn(CC(OC)OC)cc1C(=O)N1CCCC1Cc1ccccc1F (racemic) [Example I-047]	100%
COCc1c(C(=O)N2CCCC2Cc2c(F)cccc2Cl)cnn1C (racemic) [Example I-151]	100%
COCc1c(C(=O)N2CCCC2Cc2ccc(F)cc2F)cnn1C (single isomer, unassigned) [Example I-119]	90%
Cn1cc(C(=O)N2CCCC2Cc2ccccc2F)c(C2CCCO2)n1 (stereo not drawn) [Example I-011]	100%

Test system: LOLRI
Assay: as above
Assay type: in vivo, Lolium rigidum
Settings: application rate 1280 g/ha; visual grading after ca. 3 weeks vs untreated controls; 100% = plants have died off, 0% = as control plants
Text: as §1

SMILES	pre-emergence activity against LOLRI
COCc1nn(C(C)C)cc1C(=O)N1CCCC1Cc1ccccc1F (racemic) [Example I-025]	90%
COCc1nn(CC(OC)OC)cc1C(=O)N1CCCC1Cc1ccccc1F (racemic) [Example I-047]	90%
COCc1c(C(=O)N2CCCC2Cc2c(F)cccc2Cl)cnn1C (racemic) [Example I-151]	90%
COCc1c(C(=O)N2CCCC2Cc2ccc(F)cc2F)cnn1C (single isomer, unassigned) [Example I-119]	100%
Cn1cc(C(=O)N2CCCC2Cc2ccccc2F)c(C2CCCO2)n1 (stereo not drawn) [Example I-011]	90%

Test system: MATIN
Assay: as above
Assay type: in vivo, Matricaria inodora
Settings: application rate 1280 g/ha; visual grading after ca. 3 weeks vs untreated controls; 100% = plants have died off, 0% = as control plants
Text: as §1

SMILES	pre-emergence activity against MATIN
COCc1nn(C(C)C)cc1C(=O)N1CCCC1Cc1ccccc1F (racemic) [Example I-025]	90%
COCc1nn(CC#N)cc1C(=O)N1CCCC1Cc1ccccc1F (racemic) [Example I-029]	90%
COCCOCCn1cc(C(=O)N2CCCC2Cc2ccccc2F)c(COC)n1 (racemic) [Example I-030]	90%

Test system: SETVI
Assay: as above
Assay type: in vivo, Setaria viridis
Settings: application rate 320 g/ha; visual grading after ca. 3 weeks vs untreated controls; 100% = plants have died off, 0% = as control plants
Text: as §1

SMILES	pre-emergence activity against SETVI
COCc1c(C(=O)N2CCCC2Cc2ccc(F)cc2F)cnn1C (single isomer, unassigned) [Example I-119]	90%

Same assay, conditions: application rate 1280 g/ha; visual grading after ca. 3 weeks vs untreated controls; 100% = plants have died off, 0% = as control plants

SMILES	pre-emergence activity against SETVI
COCc1nn(C(C)C)cc1C(=O)N1CCCC1Cc1ccccc1F (racemic) [Example I-025]	90%
COCc1nn(CC2CC2)cc1C(=O)N1CCCC1Cc1ccccc1F (racemic) [Example I-026]	90%
COCc1nn(CC2OCCO2)cc1C(=O)N1CCCC1Cc1ccccc1F (racemic) [Example I-028]	90%
COCc1nn(CC#N)cc1C(=O)N1CCCC1Cc1ccccc1F (racemic) [Example I-029]	100%
COCCOCCn1cc(C(=O)N2CCCC2Cc2ccccc2F)c(COC)n1 (racemic) [Example I-030]	90%
COCc1c(C(=O)N2CCCC2Cc2c(F)cccc2Cl)cnn1C (racemic) [Example I-151]	90%
COCc1c(C(=O)N2CCCC2Cc2ccc(F)cc2F)cnn1C (single isomer, unassigned) [Example I-119]	100%

Test system: STEME
Assay: as above
Assay type: in vivo, Stellaria media
Settings: application rate 1280 g/ha; visual grading after ca. 3 weeks vs untreated controls; 100% = plants have died off, 0% = as control plants
Text: as §1

SMILES	pre-emergence activity against STEME
COCc1c(C(=O)N2CCCC2Cc2c(F)cccc2Cl)cnn1C (racemic) [Example I-151]	90%
Cn1cc(C(=O)N2CCCC2Cc2ccccc2F)c(C2CCCO2)n1 (stereo not drawn) [Example I-011]	90%

Test system: POAAN
Assay: as above
Assay type: in vivo, Poa annua
Settings: application rate 80 g/ha; Table A7c
Text: as §1

SMILES	pre-emergence activity against POAAN
COCCOCCn1cc(C(=O)N2CCCC2Cc2ccccc2F)c(COC)n1 (racemic) [Example I-030]	90%

Same assay, conditions: application rate 320 g/ha; Table A7b

SMILES	pre-emergence activity against POAAN
COCc1nn(C(C)C)cc1C(=O)N1CCCC1Cc1ccccc1F (racemic) [Example I-025]	100%
COCCOCCn1cc(C(=O)N2CCCC2Cc2ccccc2F)c(COC)n1 (racemic) [Example I-030]	90%

Same assay, conditions: application rate 1280 g/ha; visual grading after ca. 3 weeks vs untreated controls; 100% = plants have died off, 0% = as control plants

SMILES	pre-emergence activity against POAAN
COCc1nn(C(C)C)cc1C(=O)N1CCCC1Cc1ccccc1F (racemic) [Example I-025]	100%
COCc1nn(CC2CC2)cc1C(=O)N1CCCC1Cc1ccccc1F (racemic) [Example I-026]	100%
COCc1nn(CC2OCCO2)cc1C(=O)N1CCCC1Cc1ccccc1F (racemic) [Example I-028]	100%
COCc1nn(CC#N)cc1C(=O)N1CCCC1Cc1ccccc1F (racemic) [Example I-029]	90%
COCCOCCn1cc(C(=O)N2CCCC2Cc2ccccc2F)c(COC)n1 (racemic) [Example I-030]	100%
COCc1nn(CC(OC)OC)cc1C(=O)N1CCCC1Cc1ccccc1F (racemic) [Example I-047]	100%
COCc1c(C(=O)N2CCCC2Cc2c(F)cccc2Cl)cnn1C (racemic) [Example I-151]	100%
COCc1c(C(=O)N2CCCC2Cc2ccc(F)cc2F)cnn1C (single isomer, unassigned) [Example I-119]	100%
Cn1cc(C(=O)N2CCCC2Cc2ccccc2F)c(C2CCCO2)n1 (stereo not drawn) [Example I-011]	100%

Test system: DIGSA
Assay: as above
Assay type: in vivo, Digitaria sanguinalis
Settings: application rate 320 g/ha; Table A12b
Text: as §1

SMILES	pre-emergence activity against DIGSA
COCc1nn(C(C)C)cc1C(=O)N1CCCC1Cc1ccccc1F (racemic) [Example I-025]	90%
COCc1c(C(=O)N2CCCC2Cc2ccc(F)cc2F)cnn1C (single isomer, unassigned) [Example I-119]	90%

Same assay, conditions: application rate 1280 g/ha; Table A12a

SMILES	pre-emergence activity against DIGSA
COCc1nn(C(C)C)cc1C(=O)N1CCCC1Cc1ccccc1F (racemic) [Example I-025]	100%
COCc1nn(CC2CC2)cc1C(=O)N1CCCC1Cc1ccccc1F (racemic) [Example I-026]	100%
COCc1nn(CC2OCCO2)cc1C(=O)N1CCCC1Cc1ccccc1F (racemic) [Example I-028]	90%
COCc1nn(CC#N)cc1C(=O)N1CCCC1Cc1ccccc1F (racemic) [Example I-029]	100%
COCCOCCn1cc(C(=O)N2CCCC2Cc2ccccc2F)c(COC)n1 (racemic) [Example I-030]	90%
COCc1nn(CC(OC)OC)cc1C(=O)N1CCCC1Cc1ccccc1F (racemic) [Example I-047]	90%
COCc1c(C(=O)N2CCCC2Cc2c(F)cccc2Cl)cnn1C (racemic) [Example I-151]	100%
COCc1c(C(=O)N2CCCC2Cc2ccc(F)cc2F)cnn1C (single isomer, unassigned) [Example I-119]	100%
Cn1cc(C(=O)N2CCCC2Cc2ccccc2F)c(C2CCCO2)n1 (stereo not drawn) [Example I-011]	100%

Test system: POAAN
Assay: B. Herbicidal post-emergence action on harmful plants (Tables B)
Assay type: in vivo, Poa annua
Settings: application rate 1280 g/ha; Table B7a
Protocol: Seeds of mono- and dicotyledonous weed plants were placed in plastic pots in sandy loam soil (doubly sown with in each case one species of mono- or dicotyledonous weed plants per pot), covered with soil and cultivated in a greenhouse under controlled growth conditions. 2 to 3 weeks after sowing, the test plants were treated at the one-leaf stage. The compounds of the invention, formulated in the form of wettable powders (WP) or as emulsion concentrates (EC), were applied onto the green parts of the plants as aqueous suspension or emulsion with addition of 0.5% additive at a water application rate of 600 liters per hectare (converted). After the test plants had been kept in the greenhouse under optimum growth conditions for about 3 weeks, the activity of the preparations was rated visually in comparison to untreated controls. For example, 100% activity = the plants have died, 0% activity = like control plants. Tables B1 to B12, below, show the effects of selected compounds of the general formula (I) according to table 1 on various harmful plants and an application rate corresponding to 1280 g/ha or below obtained by the experimental procedure mentioned above. Table B1a: post-emergence activity at 1280g/ha against ABUTH in %

SMILES	post-emergence activity against POAAN
COCc1c(C(=O)N2CCCC2Cc2ccc(F)cc2F)cnn1C (single isomer, unassigned) [Example I-119]	90%
